Experimental data: patent US20220281886A1, “NATRIURETIC PEPTIDE RECEPTOR A AGONISTS USEFUL FOR THE TREATMENT OF CARDIOMETABOLIC DISEASES, KIDNEY DISEASE AND DIABETES” (Merck Sharp & Dohme Corp., priority 2019, published 2022)

molecular target: T1, hNPRA (Homo sapiens, UniProt P16066); experiment: NPRA Functional Cell Assay (cGMP HTRF); assay type: cell-based; details: Human NPRA HEK JumpIn stable cells; cGMP by HTRF after 1 hour at 37° C.; 10-point dose response
T1 construct: expressed in transfected cells
T1 sequence (P16066 33-1061): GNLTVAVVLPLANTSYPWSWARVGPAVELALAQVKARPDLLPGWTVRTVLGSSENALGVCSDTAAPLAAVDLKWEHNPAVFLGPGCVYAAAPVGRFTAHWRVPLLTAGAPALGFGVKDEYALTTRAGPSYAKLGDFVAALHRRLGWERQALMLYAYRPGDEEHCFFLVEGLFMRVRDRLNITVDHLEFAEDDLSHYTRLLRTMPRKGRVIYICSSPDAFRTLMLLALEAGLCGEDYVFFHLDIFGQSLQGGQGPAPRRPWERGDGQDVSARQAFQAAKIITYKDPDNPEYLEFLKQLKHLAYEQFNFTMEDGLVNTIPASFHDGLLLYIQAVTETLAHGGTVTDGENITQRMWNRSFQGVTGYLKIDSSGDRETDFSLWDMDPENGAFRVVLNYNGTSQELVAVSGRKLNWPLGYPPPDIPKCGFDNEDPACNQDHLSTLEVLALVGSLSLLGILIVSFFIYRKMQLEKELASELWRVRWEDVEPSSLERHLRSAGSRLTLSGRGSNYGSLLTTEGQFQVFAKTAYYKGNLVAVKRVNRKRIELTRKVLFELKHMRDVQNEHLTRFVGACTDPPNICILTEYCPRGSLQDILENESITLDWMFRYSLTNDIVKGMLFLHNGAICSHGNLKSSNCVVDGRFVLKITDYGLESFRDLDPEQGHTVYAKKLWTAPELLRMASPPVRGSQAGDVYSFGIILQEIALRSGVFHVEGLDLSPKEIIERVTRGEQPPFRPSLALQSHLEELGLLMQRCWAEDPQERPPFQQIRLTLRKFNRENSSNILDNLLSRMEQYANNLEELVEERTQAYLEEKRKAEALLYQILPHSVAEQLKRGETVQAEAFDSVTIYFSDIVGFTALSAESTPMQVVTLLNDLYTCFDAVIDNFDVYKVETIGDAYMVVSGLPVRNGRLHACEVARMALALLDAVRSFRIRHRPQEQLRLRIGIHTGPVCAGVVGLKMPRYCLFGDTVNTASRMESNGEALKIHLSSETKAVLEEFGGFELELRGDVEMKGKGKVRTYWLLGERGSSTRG
Procedure, shortened: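 HEK JumpIn cells stably expressing human, rat or dog NPRA incubated 1 hour at 37° C with compound (10-point titration) in Opti-MEM buffer with 100 uM IBMX and 100 uM RO20. cGMP measured by HTRF against an on-plate calibration curve; EC50 from 4-parameter fit, positive control 10 nM rat-ANP (rat) or 50 nM h-ANP (human, dog).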

| EC50 | Structure (SMILES) |
| --- | --- |
| 0.0985 µM | CC(C)[C@]1(F)CCc2nc3c(F)cc(C(=O)N[C@H](CCN4CCC5(CC[C@@H](O)C5)CC4)c4ccc(-c5ccnnc5)nc4)cc3cc2C1 (racemic) [Example 49, rac-(7S)-4,7-difluoro-7-isopropyl-N-[rac-(1R)-1-(6-pyridazin-4-yl-3-pyridyl)-3-[rac-(3R)-3-hydroxy-8-azaspiro[4.5]decan-8-yl]propyl]-6,8-dihydro-5H-acridine-2-carboxamide] |
| 0.434 µM | CC(C)[C@]1(F)CCc2nc3c(F)cc(C(=O)N[C@H](CCN4CCCCC4CN(C)C)c4ccc(-c5ccnnc5)nc4)cc3cc2C1 (mixture of isomers) [Example 59, rac-(7S)-4,7-difluoro-7-isopropyl-N-[rac-(1R)-3-[2-[(dimethylamino)methyl]-1-piperidyl]-1-(6-pyridazin-4-yl-3-pyridyl)propyl]-6,8-dihydro-5H-acridine-2-carboxamide] |
| 0.0981 µM | CC(C)[C@]1(F)CCc2nc3c(F)cc(C(=O)N[C@H](CCN4CCCCC4CCO)c4ccc(-c5ccnnc5)nc4)cc3cc2C1 (mixture of isomers) [Example 53, rac-(7S)-4,7-difluoro-7-isopropyl-N-[rac-(1R)-3-[2-(2-hydroxyethyl)-1-piperidyl]-1-(6-pyridazin-4-yl-3-pyridyl)propyl]-6,8-dihydro-5H-acridine-2-carboxamide] |
| 0.359 µM | COC(=O)CC1CCN(CC[C@@H](NC(=O)c2ccc3nc4c(cc3c2)C[C@@H](C2(C)CC2)CC4)c2cccc(C(=O)NC3CN(C)C3)c2)CC1 (racemic) [Example 65, methyl 2-[1-[rac-(3R)-3-[(1-methylazetidin-3-yl)carbamoyl]phenyl]-3-[[rac-(7S)-7-(1-methylcyclopropyl)-5,6,7,8-tetrahydroacridine-2-carbonyl]amino]propyl]-4-piperidyl]acetate] |

Continued, molecule first:

| Structure (SMILES) | EC50 |
| --- | --- |
| CC(C)[C@]1(F)CCc2nc3c(F)cc(C(=O)N[C@H](CCN4CCC(C(=O)O)CC4)c4ccc(-c5cnc(O)c(F)c5)cc4)cc3cc2C1 [Example 25, 1-((R)-3-((S)-4,7-difluoro-7-isopropyl-5,6,7,8-tetrahydroacridine-2-carboxamido)-3-(4-(5-fluoro-6-hydroxypyridin-3-yl)phenyl)propyl)piperidine-4-carboxylic acid] | 0.167 µM |
| Cc1cc(C(=O)N[C@H](CCN2CCC(O)CC2)c2ccc(N3CCOC3=O)cc2)cc2cc3c(nc12)CCC(C(C)(C)C)C3 (stereo partly drawn) [Example 9, 7-(tert-butyl)-N-((R)-3-(4-hydroxypiperidin-1-yl)-1-(4-(2-oxooxazolidin-3-yl)phenyl)propyl)-4-methyl-5,6,7,8-tetrahydroacridine-2-carboxamide+] | 2.55 µM |
| CN1CC(NC(=O)c2cccc([C@@H](CCN3CCC[C@H]3CO)NC(=O)c3ccc4nc5c(cc4c3)C[C@@H](C3(C(F)F)CC3)CC5)c2)C1 [Example 23] | 0.405 µM |
| CC(O)C1CCN(CC[C@@H](NC(=O)c2cc(F)c3nc4c(cc3c2)C[C@](F)(C(C)C)CC4)c2ccc(-c3ccnnc3)nc2)CC1 (mixture of isomers) [Example 41, rac-(7S)-4,7-difluoro-7-isopropyl-N-[rac-(1R)-3-[4-(1-hydroxyethyl)piperidin-1-ium-1-yl]-1-(6-pyridazin-4-yl-3-pyridyl)propyl]-6,8-dihydro-5H-acridine-2-carboxamide;2,2,2-trifluoroacetate] | 0.236 µM |
| CC(C)[C@]1(F)CCc2nc3c(F)cc(C(=O)N[C@H](CCN4CCC(O)CC4(C)C)c4ccc(-c5ccnnc5)nc4)cc3cc2C1 (stereo partly drawn) [Example 11, (7S)-4,7-difluoro-N-[(1R)-3-(4-hydroxy-2,2-dimethylpiperidin-1-yl)-1-(6-pyridazin-4-ylpyridin-3-yl)propyl]-7-(1-methylethyl)-5,6,7,8-tetrahydroacridine-2-carboxamide] | 0.219 µM |
| CC(C)[C@]1(F)CCc2nc3c(F)cc(C(=O)N[C@H](CCN4CCC(O)CC4)c4ccc(-c5ccnnc5)nc4)cc3cc2C1 [Example 10, (7S)-4,7-difluoro-N-[(1R)-3-(4-hydroxypiperidin-1-yl)-1-(6-pyridazin-4-ylpyridin-3-yl)propyl]-7-(1-methylethyl)-5,6,7,8-tetrahydroacridine-2-carboxamide] | 0.112 µM |
